Patent US20260337208A1, “HETEROCYCLIC DERIVATIVES AS JANUS KINASE INHIBITORS” (CHIESI FARMACEUTICI S.P.A., priority 2022, published 2026)
Blank lines part the entries; values can stand above or below the molecule they belong to.

Legend:
JAK2 = JAK2 (Homo sapiens, UniProt O60674); experiment: Biochemical potency on JAK2, TR-FRET (LANCE Ultra kinase assay); details: ATP corresponding to Km; cell-free; read-out: JAK2 inhibitory activity (pIC50) (converted)
Summary of the method: (§1)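 ULight-JAK-1 (Tyr1023) peptide phosphorylation at Km ATP, 1.5 h r.t.; substrate solution held peptide 30/50/20/10 nM and ATP 20/0.7/0.2/12 μM, enzyme solution 0.15/0.083/0.025/0.144 ng/μL (JAK1/JAK2/JAK3/TYK2). EDTA stop, Eu-PT66 antibody TR-FRET read at 665 nm; 11-point 5-fold dilutions from 20 μM; IC50 by variable-slope fit.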

TYK2 = TYK2 (Homo sapiens, UniProt P29597); experiment: Biochemical potency on Tyk2, TR-FRET (LANCE Ultra kinase assay); details: ATP corresponding to Km; cell-free; read-out: TYK2 inhibitory activity (pIC50) (converted)
Summary of the method: as §1

JAK1 = JAK1 (Homo sapiens, UniProt P23458); experiment: Biochemical potency on JAK1, TR-FRET (LANCE Ultra kinase assay); details: ATP corresponding to Km; cell-free; read-out: JAK1 inhibitory activity (pIC50) (converted)
Summary of the method: as §1

JAK3 = biological target: T1, JAK3 (Homo sapiens, UniProt P52333); experiment: Biochemical potency on JAK3, TR-FRET (LANCE Ultra kinase assay); details: ATP corresponding to Km; cell-free; read-out: JAK3 inhibitory activity (pIC50) (converted)
T1 sequence (P52333 1-1124): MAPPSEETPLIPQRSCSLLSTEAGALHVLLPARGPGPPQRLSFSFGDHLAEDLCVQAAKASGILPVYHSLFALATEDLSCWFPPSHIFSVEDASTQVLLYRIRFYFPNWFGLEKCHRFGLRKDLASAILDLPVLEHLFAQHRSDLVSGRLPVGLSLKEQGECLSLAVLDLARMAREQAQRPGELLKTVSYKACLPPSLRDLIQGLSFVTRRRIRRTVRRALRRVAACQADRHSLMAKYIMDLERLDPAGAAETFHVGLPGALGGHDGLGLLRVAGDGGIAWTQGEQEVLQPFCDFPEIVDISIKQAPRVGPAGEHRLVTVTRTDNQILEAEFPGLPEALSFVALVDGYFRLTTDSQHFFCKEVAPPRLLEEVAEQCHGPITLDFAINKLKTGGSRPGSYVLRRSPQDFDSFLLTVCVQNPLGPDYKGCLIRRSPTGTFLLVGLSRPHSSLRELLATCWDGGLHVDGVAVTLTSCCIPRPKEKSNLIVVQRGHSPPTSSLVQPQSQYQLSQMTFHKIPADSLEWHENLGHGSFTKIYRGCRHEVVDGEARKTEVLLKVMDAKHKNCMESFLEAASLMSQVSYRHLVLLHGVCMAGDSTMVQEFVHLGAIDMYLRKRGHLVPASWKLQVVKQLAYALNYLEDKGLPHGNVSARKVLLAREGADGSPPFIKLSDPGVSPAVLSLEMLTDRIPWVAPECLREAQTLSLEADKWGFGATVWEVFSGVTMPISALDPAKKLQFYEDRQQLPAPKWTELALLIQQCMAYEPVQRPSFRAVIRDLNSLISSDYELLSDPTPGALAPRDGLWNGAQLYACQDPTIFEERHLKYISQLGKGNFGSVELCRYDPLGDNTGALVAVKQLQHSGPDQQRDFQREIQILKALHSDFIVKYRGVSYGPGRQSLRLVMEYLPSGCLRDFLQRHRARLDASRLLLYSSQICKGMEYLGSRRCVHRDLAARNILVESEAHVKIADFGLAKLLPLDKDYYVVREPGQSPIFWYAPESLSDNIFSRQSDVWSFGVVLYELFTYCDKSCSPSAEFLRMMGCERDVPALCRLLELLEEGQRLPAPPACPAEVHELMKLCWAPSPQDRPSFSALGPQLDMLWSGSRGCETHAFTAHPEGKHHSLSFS
Summary of the method: as §1

[1] = tested on: pSTAT6 in BEAS-2B human cell line; experiment: Inhibition of IL-13 induced pSTAT6 in BEAS; assay type: cell-based; details: for IC50: Homo sapiens, BEAS-2B, 0.5 h, IL-13 trigger, 30 min, parent compound; for Fold difference parent vs predicted acid metabolite: ratio=IC50 predicted acid metabolite/IC50 ester
Summary of the method: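 BEAS-2B cells grown 48 h, pre-treated 30 min with compound, then stimulated 30 min with IL-13. Lysate pSTAT6 (Tyr641) measured by sandwich ELISA. Eleven 5-fold dilutions from 10 μM, in duplicate, fitted to IC50.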

JAK2, sequence (O60674 whole entry): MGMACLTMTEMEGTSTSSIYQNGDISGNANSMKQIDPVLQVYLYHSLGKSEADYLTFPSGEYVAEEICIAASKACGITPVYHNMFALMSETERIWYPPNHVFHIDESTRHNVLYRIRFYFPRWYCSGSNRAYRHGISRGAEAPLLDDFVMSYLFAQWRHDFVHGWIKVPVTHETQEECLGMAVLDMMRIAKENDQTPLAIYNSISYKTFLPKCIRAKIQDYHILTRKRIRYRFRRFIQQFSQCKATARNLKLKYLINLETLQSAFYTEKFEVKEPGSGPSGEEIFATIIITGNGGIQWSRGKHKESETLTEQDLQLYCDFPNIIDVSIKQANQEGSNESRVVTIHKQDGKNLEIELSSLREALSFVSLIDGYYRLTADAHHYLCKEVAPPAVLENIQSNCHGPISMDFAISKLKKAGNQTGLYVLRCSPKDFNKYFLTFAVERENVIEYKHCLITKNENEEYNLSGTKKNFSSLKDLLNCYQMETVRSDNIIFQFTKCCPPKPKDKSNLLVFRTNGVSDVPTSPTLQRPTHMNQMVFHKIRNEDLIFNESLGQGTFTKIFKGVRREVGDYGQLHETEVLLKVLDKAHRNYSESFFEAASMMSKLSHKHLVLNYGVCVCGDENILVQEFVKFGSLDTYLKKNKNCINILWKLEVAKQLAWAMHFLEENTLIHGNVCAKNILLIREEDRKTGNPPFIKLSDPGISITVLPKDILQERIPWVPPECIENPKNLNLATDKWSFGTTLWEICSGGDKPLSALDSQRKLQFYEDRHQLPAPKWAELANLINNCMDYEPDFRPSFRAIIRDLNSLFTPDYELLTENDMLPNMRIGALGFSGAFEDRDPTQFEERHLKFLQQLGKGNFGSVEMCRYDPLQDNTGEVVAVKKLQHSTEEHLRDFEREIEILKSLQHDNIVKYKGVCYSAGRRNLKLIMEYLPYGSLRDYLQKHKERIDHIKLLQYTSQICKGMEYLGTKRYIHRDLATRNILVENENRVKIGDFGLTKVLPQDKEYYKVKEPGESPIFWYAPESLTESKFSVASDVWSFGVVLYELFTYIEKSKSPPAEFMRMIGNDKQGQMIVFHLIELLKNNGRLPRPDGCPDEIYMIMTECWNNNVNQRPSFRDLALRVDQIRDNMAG
TYK2, sequence (P29597 whole entry): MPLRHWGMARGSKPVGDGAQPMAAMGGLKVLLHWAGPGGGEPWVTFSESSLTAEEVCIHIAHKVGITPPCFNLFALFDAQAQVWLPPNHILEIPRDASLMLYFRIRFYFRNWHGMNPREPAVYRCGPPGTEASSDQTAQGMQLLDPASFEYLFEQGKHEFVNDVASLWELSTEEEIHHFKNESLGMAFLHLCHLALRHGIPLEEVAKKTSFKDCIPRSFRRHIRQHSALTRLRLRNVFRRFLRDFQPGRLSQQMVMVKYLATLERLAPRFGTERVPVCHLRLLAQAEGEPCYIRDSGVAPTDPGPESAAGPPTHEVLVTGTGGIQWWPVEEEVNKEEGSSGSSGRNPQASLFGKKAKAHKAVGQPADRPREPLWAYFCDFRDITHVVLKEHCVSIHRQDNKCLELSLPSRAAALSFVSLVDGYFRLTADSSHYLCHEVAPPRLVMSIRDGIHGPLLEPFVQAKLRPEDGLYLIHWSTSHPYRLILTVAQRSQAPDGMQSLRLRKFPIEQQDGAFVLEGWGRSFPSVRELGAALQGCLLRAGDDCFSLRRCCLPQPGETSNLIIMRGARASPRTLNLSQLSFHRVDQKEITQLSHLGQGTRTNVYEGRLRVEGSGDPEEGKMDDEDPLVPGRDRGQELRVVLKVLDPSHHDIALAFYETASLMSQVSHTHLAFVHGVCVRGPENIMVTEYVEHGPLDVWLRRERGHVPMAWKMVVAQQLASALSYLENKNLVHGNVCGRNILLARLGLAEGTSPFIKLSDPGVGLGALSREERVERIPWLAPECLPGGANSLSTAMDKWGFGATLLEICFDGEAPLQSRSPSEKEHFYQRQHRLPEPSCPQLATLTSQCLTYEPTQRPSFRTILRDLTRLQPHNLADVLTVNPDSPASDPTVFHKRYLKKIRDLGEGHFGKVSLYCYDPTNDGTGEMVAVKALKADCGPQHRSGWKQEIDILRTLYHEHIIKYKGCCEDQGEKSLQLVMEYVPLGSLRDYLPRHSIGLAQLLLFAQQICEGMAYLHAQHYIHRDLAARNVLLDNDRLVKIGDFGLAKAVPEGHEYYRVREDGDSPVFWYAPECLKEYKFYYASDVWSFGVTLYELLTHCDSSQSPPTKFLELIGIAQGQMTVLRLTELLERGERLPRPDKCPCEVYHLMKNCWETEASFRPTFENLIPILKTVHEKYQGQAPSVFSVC
JAK1, sequence (P23458 whole entry): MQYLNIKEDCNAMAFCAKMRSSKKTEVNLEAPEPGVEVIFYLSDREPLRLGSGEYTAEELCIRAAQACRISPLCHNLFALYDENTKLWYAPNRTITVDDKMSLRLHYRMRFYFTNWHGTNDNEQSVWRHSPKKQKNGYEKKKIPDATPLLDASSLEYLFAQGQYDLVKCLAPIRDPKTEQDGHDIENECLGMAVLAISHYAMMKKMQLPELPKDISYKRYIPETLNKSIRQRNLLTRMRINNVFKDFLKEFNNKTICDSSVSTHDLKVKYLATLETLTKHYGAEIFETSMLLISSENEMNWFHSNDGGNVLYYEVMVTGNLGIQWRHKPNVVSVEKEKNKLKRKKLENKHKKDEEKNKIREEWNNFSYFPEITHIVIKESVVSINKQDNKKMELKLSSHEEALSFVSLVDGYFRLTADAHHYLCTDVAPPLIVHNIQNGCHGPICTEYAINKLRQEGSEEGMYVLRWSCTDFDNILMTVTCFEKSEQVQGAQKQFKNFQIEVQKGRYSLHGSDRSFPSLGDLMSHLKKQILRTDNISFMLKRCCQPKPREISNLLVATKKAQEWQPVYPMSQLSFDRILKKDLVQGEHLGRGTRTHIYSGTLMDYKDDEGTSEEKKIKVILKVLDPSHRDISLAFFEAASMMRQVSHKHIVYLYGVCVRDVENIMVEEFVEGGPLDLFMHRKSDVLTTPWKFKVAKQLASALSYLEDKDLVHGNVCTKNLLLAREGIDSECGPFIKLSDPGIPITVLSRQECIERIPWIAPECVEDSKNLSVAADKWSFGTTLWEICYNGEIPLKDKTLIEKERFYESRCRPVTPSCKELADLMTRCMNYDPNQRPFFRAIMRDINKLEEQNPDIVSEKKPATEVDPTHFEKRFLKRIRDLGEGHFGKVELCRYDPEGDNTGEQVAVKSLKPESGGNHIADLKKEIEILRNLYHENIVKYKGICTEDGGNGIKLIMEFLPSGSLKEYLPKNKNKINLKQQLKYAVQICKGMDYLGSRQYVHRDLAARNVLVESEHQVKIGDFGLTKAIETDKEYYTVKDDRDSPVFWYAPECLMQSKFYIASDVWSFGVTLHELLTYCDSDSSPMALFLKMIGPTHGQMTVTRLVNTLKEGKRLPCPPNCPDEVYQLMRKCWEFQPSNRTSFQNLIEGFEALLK

SMILES: CCOC(=O)C1(F)CCN(CCNC(=O)c2nn(-c3cc4c(cc3OC)NCCO4)c3cc(-c4cnn5cccnc45)ncc23)CC1 [Example 28, ethyl 4-fluoro-1-(2-(1-(6-methoxy-3,4-dihydro-2H-benzo[b][1,4]oxazin-7-yl)-6-(pyrazolo[1,5-a]pyrimidin-3-yl)-1H-pyrazolo[4,3-c]pyridine-3-carboxamido)ethyl)piperidine-4-carboxylate]
- IC50 (JAK2): ≤ 5.01 nM
- IC50 (TYK2): 5.01 to 50.1 nM
- IC50 (JAK1): ≤ 5.01 nM
- IC50 (JAK3): ≤ 5.01 nM
- IC50 [1]: 5.01 to 50.1 nM

SMILES: CCOC(=O)[C@@H]1C[C@@H]2CN(CCNC(=O)c3nn(-c4cc5c(cc4OC)NCCO5)c4cc(-c5cnn6cccnc56)ncc34)C[C@@H]2C1 [Example 32]
- IC50 (JAK2): ≤ 5.01 nM
- IC50 (TYK2): 5.01 to 50.1 nM
- IC50 (JAK1): ≤ 5.01 nM
- IC50 (JAK3): ≤ 5.01 nM
- IC50 [1]: 5.01 to 50.1 nM

SMILES: CCOC(=O)[C@H]1[C@@H]2CN(CCNC(=O)c3nn(-c4cc5c(cc4OC)NCCO5)c4cc(-c5cnn6cccnc56)ncc34)C[C@@H]21 [Example 33, ethyl (1R,5S,6r)-3-(2-(1-(6-methoxy-3,4-dihydro-2H-benzo[b][1,4]oxazin-7-yl)-6-(pyrazolo[1,5-a]pyrimidin-3-yl)-1H-pyrazolo[4,3-c]pyridine-3-carboxamido)ethyl)-3-azabicyclo[3.1.0]hexane-6-carboxylate]
- IC50 (JAK2): ≤ 5.01 nM
- IC50 (TYK2): 5.01 to 50.1 nM
- IC50 (JAK1): ≤ 5.01 nM
- IC50 (JAK3): ≤ 5.01 nM
- IC50 [1]: 5.01 to 50.1 nM

SMILES: CCOC(=O)C1(C)CCN(CCNC(=O)c2nn(-c3cc4c(cc3OC)NCCO4)c3cc(-c4cnn5cccnc45)ncc23)CC1 [Example 34, ethyl 1-(2-(1-(6-methoxy-3,4-dihydro-2H-benzo[b][1,4]oxazin-7-yl)-6-(pyrazolo[1,5-a]pyrimidin-3-yl)-1H-pyrazolo[4,3-c]pyridine-3-carboxamido)ethyl)-4-methylpiperidine-4-carboxylate]
- IC50 (JAK2): ≤ 5.01 nM
- IC50 (TYK2): 5.01 to 50.1 nM
- IC50 (JAK1): ≤ 5.01 nM
- IC50 (JAK3): ≤ 5.01 nM
- IC50 [1]: 5.01 to 50.1 nM

SMILES: CCOC(=O)CC1CCN(CCNC(=O)c2nn(-c3cc4c(cc3OC)NCCO4)c3cc(-c4cnn5cccnc45)ncc23)CC1 [Example 35, ethyl 2-(1-(2-(1-(6-methoxy-3,4-dihydro-2H-benzo[b][1,4]oxazin-7-yl)-6-(pyrazolo[1,5-a]pyrimidin-3-yl)-1H-pyrazolo[4,3-c]pyridine-3-carboxamido)ethyl)piperidin-4-yl)acetate]
- IC50 (JAK2): ≤ 5.01 nM
- IC50 (TYK2): 5.01 to 50.1 nM
- IC50 (JAK1): ≤ 5.01 nM
- IC50 (JAK3): ≤ 5.01 nM
- IC50 [1]: ≤ 5.01 nM
- Fold difference parent vs predicted acid metabolite [1]: kkkk (ratio≥200)

SMILES: CCOC(=O)C1CN(CCNC(=O)c2nn(-c3cc4c(cc3OC)NCCO4)c3cc(-c4cnn5cccnc45)ncc23)CCN1C (stereo not drawn) [Example 36, ethyl 4-(2-(1-(6-methoxy-3,4-dihydro-2H-benzo[b][1,4]oxazin-7-yl)-6-(pyrazolo[1,5-a]pyrimidin-3-yl)-1H-pyrazolo[4,3-c]pyridine-3-carboxamido)ethyl)-1-methylpiperazine-2-carboxylate]
- IC50 (JAK2): 5.01 to 50.1 nM
- IC50 (TYK2): 5.01 to 50.1 nM
- IC50 (JAK1): ≤ 5.01 nM
- IC50 (JAK3): ≤ 5.01 nM
- IC50 [1]: 5.01 to 50.1 nM

SMILES: COC(=O)Cc1cccc(CN(C)CCNC(=O)c2nn(-c3cc4c(cc3OC)NCCO4)c3cc(-c4cnn5cccnc45)ncc23)c1 [Example 37, methyl 2-(3-(((2-(1-(6-methoxy-3,4-dihydro-2H-benzo[b][1,4]oxazin-7-yl)-6-(pyrazolo[1,5-a]pyrimidin-3-yl)-1H-pyrazolo[4,3-c]pyridine-3-carboxamido)ethyl)(methyl)amino)methyl)phenyl)acetate]
- IC50 (JAK2): ≤ 5.01 nM
- IC50 (TYK2): 5.01 to 50.1 nM
- IC50 (JAK1): 5.01 to 50.1 nM
- IC50 (JAK3): ≤ 5.01 nM
- IC50 [1]: 5.01 to 50.1 nM

SMILES: CCOC(=O)C1CCN(CCNC(=O)c2nn(-c3cc4c(cc3OC)NCCC4)c3cc(-c4cnn5cccnc45)ncc23)CC1 [Example 38, ethyl 1-(2-(1-(7-methoxy-1,2,3,4-tetrahydroquinolin-6-yl)-6-(pyrazolo[1,5-a]pyrimidin-3-yl)-1H-pyrazolo[4,3-c]pyridine-3-carboxamido)ethyl)piperidine-4-carboxylate]
- IC50 (JAK2): 5.01 to 50.1 nM
- IC50 (TYK2): 5.01 to 50.1 nM
- IC50 (JAK1): 5.01 to 50.1 nM
- IC50 (JAK3): ≤ 5.01 nM
- IC50 [1]: ≤ 5.01 nM

SMILES: CCOC(=O)COC(=O)Nc1nn(-c2cc3c(cc2OC)NCCO3)c2cc(-c3cnn4cccnc34)ncc12 [Example 39, ethyl 2-(((1-(6-methoxy-3,4-dihydro-2H-benzo[b][1,4]oxazin-7-yl)-6-(pyrazolo[1,5-a]pyrimidin-3-yl)-1H-pyrazolo[4,3-c]pyridin-3-yl)carbamoyl)oxy)acetate]
- IC50 (JAK2): ≤ 5.01 nM
- IC50 (TYK2): 5.01 to 50.1 nM
- IC50 (JAK1): ≤ 5.01 nM
- IC50 (JAK3): ≤ 5.01 nM
- IC50 [1]: 5.01 to 50.1 nM
- Fold difference parent vs predicted acid metabolite [1]: kkkk (ratio≥200)

More lines, main results first:

- IC50 (JAK2): ≤ 5.01 nM
- IC50 (TYK2): 5.01 to 50.1 nM
- IC50 (JAK1): ≤ 5.01 nM
- IC50 (JAK3): ≤ 5.01 nM
SMILES: CCOC(=O)C1CCCN(CCNC(=O)c2nn(-c3cc4c(cc3OC)NCCO4)c3cc(-c4cnn5cccnc45)ncc23)C1 (stereo not drawn) [Example 27, ethyl 1-(2-(1-(6-methoxy-3,4-dihydro-2H-benzo[b][1,4]oxazin-7-yl)-6-(pyrazolo[1,5-a]pyrimidin-3-yl)-1H-pyrazolo[4,3-c]pyridine-3-carboxamido)ethyl)piperidine-3-carboxylate]
- IC50 [1]: 5.01 to 50.1 nM

- IC50 (JAK2): ≤ 5.01 nM
- IC50 (TYK2): 5.01 to 50.1 nM
- IC50 (JAK1): ≤ 5.01 nM
- IC50 (JAK3): ≤ 5.01 nM
SMILES: COC(=O)[C@@H]1CCN(CCNC(=O)c2nn(-c3cc4c(cc3OC)NCCO4)c3cc(-c4cnn5cccnc45)ncc23)C1 [Example 29, methyl (R)-1-(2-(1-(6-methoxy-3,4-dihydro-2H-benzo[b][1,4]oxazin-7-yl)-6-(pyrazolo[1,5-a]pyrimidin-3-yl)-1H-pyrazolo[4,3-c]pyridine-3-carboxamido)ethyl)pyrrolidine-3-carboxylate]
- IC50 [1]: ≤ 5.01 nM
- Fold difference parent vs predicted acid metabolite [1]: kkk (200>ratio≥100)

- IC50 (JAK2): ≤ 5.01 nM
- IC50 (TYK2): 5.01 to 50.1 nM
- IC50 (JAK1): ≤ 5.01 nM
- IC50 (JAK3): ≤ 5.01 nM
SMILES: COC(=O)[C@H]1CCN(CCNC(=O)c2nn(-c3cc4c(cc3OC)NCCO4)c3cc(-c4cnn5cccnc45)ncc23)C1 [Example 30, methyl (S)-1-(2-(1-(6-methoxy-3,4-dihydro-2H-benzo[b][1,4]oxazin-7-yl)-6-(pyrazolo[1,5-a]pyrimidin-3-yl)-1H-pyrazolo[4,3-c]pyridine-3-carboxamido)ethyl)pyrrolidine-3-carboxylate]
- IC50 [1]: 5.01 to 50.1 nM
- Fold difference parent vs predicted acid metabolite [1]: kkkk (ratio≥200)

- IC50 (JAK2): ≤ 5.01 nM
- IC50 (TYK2): 5.01 to 50.1 nM
- IC50 (JAK1): ≤ 5.01 nM
- IC50 (JAK3): ≤ 5.01 nM
SMILES: CCOC(=O)C1CN(CCNC(=O)c2nn(-c3cc4c(cc3OC)NCCO4)c3cc(-c4cnn5cccnc45)ncc23)C1 [Example 31, ethyl 1-(2-(1-(6-methoxy-3,4-dihydro-2H-benzo[b][1,4]oxazin-7-yl)-6-(pyrazolo[1,5-a]pyrimidin-3-yl)-1H-pyrazolo[4,3-c]pyridine-3-carboxamido)ethyl)azetidine-3-carboxylate]
- IC50 [1]: 5.01 to 50.1 nM
